Laboratory results as given in patent publication US20230285556A1, “METHODS AND COMPOSITIONS FOR TREATING CANCER” (Omeros Corporation, priority 2021, published 2023).

What was measured:
Type in all cases: cell-based
[1] = system: OT-I mouse CD8 T cells; assay: Example 1: OT-I CD8 T cell 10-day expansion with inhibitors, IL-2 after restimulation with EG7 cells; conditions: 10-day expansion with IL-7+IL-15; 300 nM Compound #10, 100 nM ZM-241385; restimulated with EG7 cells without inhibitors, 6 hours
Experimental: Purified OT-I mouse CD8 T cells (StemCell mouse CD8 T cell purification kit) were cultured in 24-well plates with C57BL/6 mouse splenocytes (pre-treated with mitomycin C to prevent growth) and pOVA according to the following condition per well: • 2 mL RP10 media (RPMI, 10% fetal calf serum, 6 mM L-Glutamine, 12.5 mM HEPES, 50 μM 2-mercaptoethanol, Penicillin, Streptomycin) • 0.2 million OT-I CD8 T cells • 1.4 million mitomycin C treated splenocytes • 100 nM pOVA
and the following individual conditions: • 1. DMSO vehicle control • 2. 300 nM GPR174 inhibitor Compound #10 • 3.
On day 3, cultures were split 1:4 with new media, the inhibitors were added back to original conditions, and mouse IL-7 and mouse IL-15 were added to 10 ng/mL. On days 5 and 8, cells were washed once, counted, and replated at 0.5 million per well with IL-7 and IL-15 and the original inhibitor conditions. On day 10, cells were counted, washed twice with 12 mL RP10, and restimulated in quadruplicate with EG7 cells (H-2 K^b thymoma expressing OVA) in 96-well round bottom plates according to the following conditions: • 0.2 mL RP10; • 0.1 million OT-I T cells from each T cell expansion condition; and • 0.5 million EG7 cells.
Supernatants were collected after 6 hours and assayed for IL-2 levels (MesoScale Discovery platform).

[2] = system: human CD8 T cells; assay: Example 3: human CD8 T cell 10-day expansion with IL-7+IL-15 and inhibitors, IL-2 after restimulation; conditions: for IL-2 production following restimulation, fold vs vehicle control (FIG. 4): 300 nM Compound #10, 100 nM ZM-241385, 18 hours restimulation; for IL-2 production following restimulation, fold vs vehicle (FIG. 5): 300 nM Compound #10, 500 nM Compound #49, 100 nM ZM-241385, 18 hours restimulation
Experimental: (§1) Purified human CD8 T cells were cultured in 24-well plates with the following conditions per well: • 2 mL X-VIVO™ 15 media (Lonza) • 1 million human CD8 T cells • 2 million Human T-Activator CD3/CD28 Dynabeads® (ThermoFisher) • 10 ng/mL human IL-7 (R&D Systems) • 10 ng/mL human IL-15 (R&D Systems)
and the following individual conditions for FIG. 4: • 1. DMSO vehicle control • 2. […] 300 nM GPR174 inhibitor Compound #10 • 4.
On days 4 and 7 (FIG. 4) or days 3, 5, and 7 (FIG. 5), cultures were washed and seeded at 0.5 cells million per well with the same GPR174 and A2A inhibitor conditions, and with 10 ng/mL IL-7 and 10 ng/mL IL-15.
After 18 hours of culture, supernatants were harvested and analyzed for IL-2 (MesoScale Discovery).

[3] = system: human CD8 T cells; assay: Example 2: flow cytometry phenotype clusters (FlowSOM) of expanded human CD8 T cells; conditions: 10-day culture; relative to vehicle control
Experimental: (§2) Purified human CD8 T cells were cultured in 24-well plates according to the following conditions per well: • 1 mL X-VIVO™ 15 media (Lonza) • 1 million human CD8 T cells • 2 million Human T-Activator CD3/CD28 Dynabeads® (ThermoFisher)
(§3) and the following individual conditions: • 1. DMSO vehicle control • 2. […] 300 nM GPR174 inhibitor Compound #10 • 4.
(§4) On days 4 and 7, cultures were washed and seeded at 0.5 million cells per well with the same GPR174 and A2A inhibitor conditions, and with 100 U/mL human IL-2.
In addition to restimulation, expanded T cells were characterized by flow cytometry to evaluate expression of CCR7, CD39, CD69, TIGIT, CD45RA, LAG3, T-BET. The following detection reagents were used: anti-CD8 BV510, anti-CCR7 PE-Cy7, anti-CD39 BV605, anti-CD69 BV421, anti-TIGIT eFluor450, anti-CD45RA BV750, anti-LAG3 APC-Cy7, anti-T-BET PE-dazzle594 (all from Biolegend, Invitrogen, or BD Biosciences), and LIVE/DEAD™ Fixable Green Dead Cell Stain (ThermoFisher).
Data was collected with a Cytek Northern Lights flow cytometer, and was analyzed in FlowJo, in which automated clustering was performed on a concatenated file (containing all 4 culture conditions) with the FlowSOM plugin to generate 16 clusters. The abundance of each cluster in each cell sample was exported using the Cluster Explorer plugin.

[4] = system: human CD8 T cells; assay: Example 4: human CD8 T cell expansion with GPR174, A2A, PKA or EPAC inhibitors, IL-2 after restimulation; conditions: for IL-2 production following restimulation, fold increase vs vehicle (FIG. 6): 300 nM Compound #10, 100 nM ZM-241385, 500 μM Rp-8-Br-cAMPS, 5 μM ESI-09, 5.5 hours restimulation
Experimental: as §1, with “(Lonza) • 0.4 million human” for “(Lonza) • 1 million human”, “T cells (Donor A) • 2” for “T cells • 2”
and the following individual conditions, ±300 nM Compound #10: • 1. DMSO vehicle control • 2. […] 500 μM Rp-8-Br-cAMPS • 4. 5 μM ESI-09
On days 3, 5, and 7, cultures were washed and seeded at 0.5 cells million per well with the same small molecule inhibitor conditions, and with IL-7 and IL-15.
After 5.5 hours of culture, supernatants were harvested and analyzed for IL-2 content (MesoScale Discovery).

[5] = system: human CD8 T cells; assay: Example 2: human CD8 T cell 10-day expansion with IL-2 and inhibitors, IL-2 after CD3/CD28 restimulation; conditions: 300 nM Compound #10, 100 nM ZM-241385, CD3/CD28 bead restimulation 7 hours
Experimental: as §2, §3, §4
After 7 hours of culture, supernatants were harvested and analyzed for IL-2 (MesoScale Discovery).

| SMILES | IL-2 production following restimulation, fold above Vehicle [1] | IL-2 production following restimulation, fold vs vehicle control (FIG. 4) [2] | IL-2 production following restimulation, fold vs vehicle (FIG. 5) [2] | T cell phenotype clusters enriched or reduced (CD39, CD69, TIGIT, T-BET, LAG3, CCR7, CD45RA) [3] | IL-2 production following restimulation, fold increase vs vehicle (FIG. 6) [4] | IL-2 production following restimulation, effect in the presence of Rp-8-Br-cAMPS (FIG. 6) ([4]; 300 nM Compound #10 added to 500 μM Rp-8-Br-cAMPS) | IL-2 production upon restimulation, fold increase vs vehicle [5] |
| --- | --- | --- | --- | --- | --- | --- | --- |
| CC1CCN(c2cc(N3CCN(S(=O)(=O)c4ccccc4)CC3)c([N+](=O)[O-])cc2F)CC1 [Compound 10] | 1.8 fold | 3 fold | approximately 1.3 fold | displayed this same trend, albeit to a lesser degree | negligible effect | did not enhance IL-2 production | 1.7 fold |
| Nc1nc(NCCc2ccc(O)cc2)nc2nc(-c3ccco3)nn12 [ZM-241385, ZM 241385] |  | negligible | approximately 1.3 fold | relatively unchanged | negligible effect |  | did not alter IL-2 production |
